In patent publication US12359203B2, “Combination vectors and methods for treating cancer” (American Gene Technologies International Inc., priority 2016, dated 2025):

Tests used:
[1] = tested on: human FDPS; assay: Functional assay for FDPS mRNA reduction (quantitative RT-PCR); format: cell-based; details: HepG2 cells, 48 hours after transduction, mRNA normalized to actin; FIG. 4A
Protocol: (§1) Vector Construction: For FDPS shRNA, oligonucleotide sequences containing BamHI and EcoRI restriction sites were synthesized by MWG operon. Oligonucleotide sequences were annealed by incubation at 70 degrees Celsius and cooling to room temperature. Annealed oligonucleotides were digested with the restriction enzymes BamHI and EcoRI for one hour at 37 degrees Celsius and then the enzymes were heat-inactivated at 70 degrees Celsius for 20 minutes. In parallel, the lentiviral vector was digested with the restriction enzymes BamHI and EcoRI for one hour at 37 degrees Celsius. […] The DNA concentration was determined and the vector to oligo sequence was ligated in the ratio 3:1 insert to vector. […] Cells were collected after 2-4 days and protein and RNA was analyzed for FDPS expression.
Functional Assay for mRNA Reduction: The effect of different FDPS short homology RNA (shRNA) targeting sequences on FDPS expression was determined by measuring mRNA expression. […] The samples were then analyzed by quantitative RT-PCR using an Applied Biosystems StepOne PCR machine. FDPS expression was detected with SYBR Green from Invitrogen using the forward primer (5′-[…]-3′) (SEQ ID NO: 59) and reverse primer (5′-[…]-3′) (SEQ ID NO: 60) with standard conditions for polymerase chain reaction analysis. […] The relative expression of FDPS was determined by its Ct value normalized to the level of actin for each sample.

[2] = tested on: human CD47; assay: CD47 mRNA expression in Hep3B cells (quantitative RT-PCR); format: cell-based; details: 48 hours after transduction, mRNA normalized to actin, FIG. 7A
Protocol: Functional Assay: The effect of different CD47 shRNA targeting sequences on CD47 expression was determined by measuring mRNA expression. Hep3B hepatocellular carcinoma cells were transduced with a lentiviral vector containing CD47 shRNA sequences. After 48 hours, cells were lysed and RNA was extracted using the RNeasy mini kit from Qiagen. cDNA was then synthesized from RNA using SuperScript VILO from Invitrogen. The samples were then analyzed by quantitative RT-PCR using an Applied Biosystems StepOne PCR machine. CD47 expression was detected with SYBR Green from Invitrogen using the forward primer (5′-[…]-3′) (SEQ ID NO: 63) and reverse primer (5′-GCCTCTTGACATTCTCCTC-3′) (SEQ ID NO: 64). The samples were normalized by measuring actin expression using the forward primer (5′-AGCGCGGCTACAGCTTCA-3′) (SEQ ID NO: 61) and reverse primer (5′-[…]-3′) (SEQ ID NO: 65). The relative expression of CD47 was determined by its Ct value normalized to the level of actin for each sample.

[3] = tested on: FDPS; assay: FDPS immunoblot in HepG2 cells infected with lentiviral vectors; format: cell-based, human; details: 48 hours, FIG. 4B
Protocol: HepG2 human hepatocellular carcinoma cells were infected with lentiviral vectors containing either the H1 promoter and a FDPS shRNA (SEQ ID NO: 4) sequence or the EF-1alpha promoter and the following miR30-based FDPS sequences:
After 48 hours, cells were lysed and an immunoblot was performed using an anti-FDPS (Thermo Scientific) and an anti-actin (Sigma) antibody for a protein loading control. […] Treatment with the miR30-based FDPS sequences decreased FDPS expression.

[4] = tested on: cMyc; assay: cMyc immunoblot in SNU449 cells infected with lentiviral vectors; format: cell-based, human; details: 48 hours, FIG. 8B
Protocol: After 48 hours, cells were lysed and an immunoblot was performed using an anti-cMyc (Santa Cruz) and an anti-actin (Sigma) antibody for a protein loading control.

[5] = tested on: PC3 tumors; assay: PC3 tumor growth in NOD/SCID mice, transduced cells with or without zoledronic acid; format: in vivo; details: single dose of zoledronic acid
Protocol: Protocol overview for co-administration of LV-shRNA-FDPS (farnesyl diphosphate synthase) with or without zoledronic acid in mice implanted with human prostate cancer cell line PC3. Tumor cells were cultured in vitro, then transduced with lentivirus vector control with a scrambled sequence (nonfunctional) shRNA insert and an expression cassette for firefly luciferase, or LV-FDPS with a shRNA capable of reducing expression of FDPS mRNA and an expression cassette for firefly luciferase. The transduced tumor cells were implanted on the flank of immune deficient mice by subcutaneous injection. Once tumors reached approximately 200 mm^3 volume, all mice receive a single dose of zoledronic acid (100 micrograms per kilogram body weight, which is similar to a standard human dose) in saline. 7 days after zoledronic acid injection, an imaging study was repeated to measure volume and photon intensity of individual tumors.
Day—4: Material Preparation and Delivery. Prepare lenti-vector control and lenti-shRNA-FDPS transduced PC3 cells. • 1. […]
Effects of LV-shRNA-FDPS with or without zoledronic acid on PC3 tumor growth in NOD/SCID mice. […] A bioluminescence imaging study on Day 8 determined the average tumor sizes prior to zoledronic acid treatment (FIG. 10A). The photon intensity for tumors was measured with a CCD light capture system.

[6] = tested on: human cMyc; assay: cMyc mRNA expression in HepG2 cells (quantitative PCR); format: cell-based; details: 48 hours after transduction, mRNA normalized to actin, FIG. 8A
Protocol: as §1, with “cMyc” for “FDPS”
Functional Assay: The effect of different cMyc shRNA targeting sequences on cMyc expression was determined by measuring mRNA expression. […] The samples were then analyzed by quantitative PCR using an Applied Biosystems StepOne PCR machine. cMyc expression was detected with SYBR Green from Invitrogen using the forward primer (5′-GGACTATCCTGCTGCCAA-3′) (SEQ ID NO: 69) and reverse primer (5′-GCCTCTTGACATTCTCCTC-3′) (SEQ ID NO: 64). […] The relative expression of cMyc was determined by its Ct value normalized to the level of actin for each sample.

Compound: FDPS-2: FDPS shRNA, SEQ ID NO: 2 (DNA GCAGGATTTCGTTCAGCACTTCTCGAGAAGTGCTGAACGAAATCCTGCTTTTT)
- relative expression level of human FDPS [1]: most significant inhibition

Compound: CD47 sequence 3: CD47 shRNA, SEQ ID NO: 7 (DNA CCTCCTTCGTCATTGCCATCTCGAGATGGCAATGACGAAGGAGGTTTTT)
- relative expression level of human CD47 [2]: most significant inhibition

Compound: CD47 sequence 1: CD47 shRNA, SEQ ID NO: 5 (DNA GGTGAAACGATCATCGAGCCTCGAGGCTCGATGATCGTTTCACCTTTTT)
- relative expression level of human CD47 [2]: most significant inhibition

Compound: FDPS-4: FDPS shRNA, SEQ ID NO: 4; used with H1 promoter in FIG. 4B (DNA GCAGAAGGAGGCTGAGAAAGTCTCGAGACTTTCTCAGCCTCCTTCTGCTTTTT)
- relative expression level of human FDPS [1]: most significant inhibition
- FDPS protein expression [3]: significantly decreased

Compound: cMyc shRNA Sequence 4: cMyc shRNA, SEQ ID NO: 13; used in FIG. 8B (GAGAATGTCAAGAGGCGAACACTCGAGTGTTCGCCTCTTGACATTCTCTTTTT)
- cMyc protein expression [4]: significantly decreased

Compound: O=P(O)(O)C(O)(Cn1ccnc1)P(=O)(O)O [zoledronic acid]
- toxicity in mice [5]: not toxic

Compound: cMyc shRNA Sequence 2: cMyc shRNA, SEQ ID NO: 11 (DNA GCGAACACACAACGTCTTGGACTCGAGTCCAAGACGTTGTGTGTTCGCTTTT)
- relative expression level of human cMyc [6]: most significant inhibition
